Calls of active or inactive are those of the source. How the calls were made is not given here.
Test system: CCRIS mutagenicity, Ames/micronucleus/aberration tests
Assay: CCRIS mutagenicity studies
[1] = Test System: AMES SALMONELLA TYPHIMURIUM, Strain/Indicator: TA100, Metabolic Activation: NONE, Method: PREINCUBATION
[2] = Test System: AMES SALMONELLA TYPHIMURIUM, Strain/Indicator: TA100, Metabolic Activation: NONE, Method: STANDARD PLATE
[3] = Test System: AMES SALMONELLA TYPHIMURIUM, Strain/Indicator: TA102, Metabolic Activation: NONE, Method: STANDARD PLATE

## O=[N+]([O-])C(Br)(Br)Br
Test System: AMES SALMONELLA TYPHIMURIUM, Strain/Indicator: TA98, Metabolic Activation: NONE, Method: PREINCUBATION
  mutagenic call: inactive; negative
Test System: AMES SALMONELLA TYPHIMURIUM, Strain/Indicator: TA100, Metabolic Activation: HAMSTER, LIVER, S-9, AROCLOR 1254 (5%), Method: PREINCUBATION
  mutagenic call: inactive; negative
Test System: AMES SALMONELLA TYPHIMURIUM, Strain/Indicator: TA100, Metabolic Activation: HAMSTER, LIVER, S-9, AROCLOR 1254 (10 OR 30%), Method: PREINCUBATION
  mutagenic call: inactive; negative
Test System: AMES SALMONELLA TYPHIMURIUM, Strain/Indicator: TA100, Metabolic Activation: HAMSTER, LIVER, S-9, AROCLOR 1254 (30%), Method: PREINCUBATION
  mutagenic call: active; positive
[1]
  mutagenic call: inactive; negative
Test System: AMES SALMONELLA TYPHIMURIUM, Strain/Indicator: TA100, Metabolic Activation: RAT, LIVER, S-9, AROCLOR 1254 (5%), Method: PREINCUBATION
  mutagenic call: inactive; negative
Test System: AMES SALMONELLA TYPHIMURIUM, Strain/Indicator: TA100, Metabolic Activation: RAT, LIVER, S-9, AROCLOR 1254 (10%), Method: PREINCUBATION
  mutagenic call: inactive; negative
Test System: AMES SALMONELLA TYPHIMURIUM, Strain/Indicator: TA1535, Metabolic Activation: RAT, LIVER, S-9, AROCLOR 1254 (5%), Method: PREINCUBATION
  mutagenic call: inactive; negative
Test System: Ames Salmonella typhimurium, Strain/Indicator: RSJ100, Metabolic Activation: None, Method: Standard plate
  mutagenic call: inactive; negative
Test System: Ames Salmonella typhimurium, Strain/Indicator: RSJ 100, Metabolic Activation: Rat, Liver, S-9, Aroclor, Method: Standard plate
  mutagenic call: inactive; negative
Test System: Ames Salmonella typhimurium, Strain/Indicator: RSJ100, Metabolic Activation: Rat, Liver, S-9, Aroclor, Method: Standard plate
  mutagenic call: inactive; negative
Test System: Ames Salmonella typhimurium, Strain/Indicator: TA98, Metabolic Activation: None, Method: Standard plate
  mutagenic call: inactive; negative
Test System: Ames Salmonella typhimurium, Strain/Indicator: TA98, Metabolic Activation: Rat, Liver, S-9, Aroclor, Method: Standard plate
  mutagenic call: inactive; negative
Test System: Ames Salmonella typhimurium, Strain/Indicator: TA100, Metabolic Activation: None, Method: Standard plate
  mutagenic call: inactive; negative
Test System: Ames Salmonella typhimurium, Strain/Indicator: TA100, Metabolic Activation: Rat, Liver, S-9, Aroclor, Method: Standard plate
  mutagenic call: inactive; negative
Test System: Ames Salmonella typhimurium, Strain/Indicator: TA104, Metabolic Activation: None, Method: Standard plate
  mutagenic call: inactive; negative
Test System: Ames Salmonella typhimurium, Strain/Indicator: TA104, Metabolic Activation: Rat, Liver, S-9, Aroclor, Method: Standard plate
  mutagenic call: inactive; negative
Test System: Ames Salmonella typhimurium, Strain/Indicator: TPT100, Metabolic Activation: None, Method: Standard plate
  mutagenic call: inactive; negative

## CCCCOc1cc(Cl)ccc1C(=O)NOC(C)=O
[2]
  mutagenic call: active; positive
Test System: AMES SALMONELLA TYPHIMURIUM, Strain/Indicator: TA100, Metabolic Activation: RAT, S-9, AROCLOR, Method: STANDARD PLATE
  mutagenic call: active; positive

## C[n+]1ccc(-c2cc[n+](C)cc2)cc1
End Point: IN VIVO MICRONUCLEUS, Test System: BONE MARROW POLYCHROMATIC ERYTHROCYTES, Species: RAT, Strain/Sex: SPRAGUE DAWLEY/MALE, Route: DERMAL
  mutagenic call: active; positive; maximal response at 48 hr
[3]
  mutagenic call: inactive; negative
Test System: AMES SALMONELLA TYPHIMURIUM, Strain/Indicator: TA2638, Metabolic Activation: NONE, Method: STANDARD PLATE
  mutagenic call: inactive; negative
Test System: CHINESE HAMSTER G10, Strain/Indicator: G10 (GPT)/6-THIOGUANINE, Metabolic Activation: NONE
  mutagenic call: inactive; negative
Test System: CHINESE HAMSTER G12, Strain/Indicator: G12 (GPT)/6-THIOGUANINE, Metabolic Activation: NONE
  mutagenic call: inactive; negative
Test System: CHINESE HAMSTER V-79, Strain/Indicator: V-79 (HPRT)/6-THIOGUANINE, Metabolic Activation: NONE
  mutagenic call: inactive; negative
Test System: E. COLI, Strain/Indicator: WP2 (PKM101), Metabolic Activation: NONE, Method: STANDARD PLATE
  mutagenic call: inactive; negative
Test System: E. COLI, Strain/Indicator: WP2 UVRA (PKM101), Metabolic Activation: NONE, Method: STANDARD PLATE
  mutagenic call: inactive; negative

## Cc1ccc(NO)c(C)c1
[1]
  mutagenic call: active; positive
Test System: AMES SALMONELLA TYPHIMURIUM, Strain/Indicator: TA100, Metabolic Activation: RAT, LIVER, S-9, PCB, Method: PREINCUBATION
  mutagenic call: active; positive

## O=C(O)c1cn(-c2ccc(F)cc2)c2cc(N3CCNCC3)c(F)cc2c1=O
Test System: AMES SALMONELLA TYPHIMURIUM, Strain/Indicator: TA97, Metabolic Activation: NONE, Method: STANDARD PLATE
  mutagenic call: inactive; negative
Test System: AMES SALMONELLA TYPHIMURIUM, Strain/Indicator: TA97, Metabolic Activation: S-9, Method: STANDARD PLATE
  mutagenic call: inactive; negative
Test System: AMES SALMONELLA TYPHIMURIUM, Strain/Indicator: TA98, Metabolic Activation: NONE, Method: STANDARD PLATE
  mutagenic call: inactive; negative
Test System: AMES SALMONELLA TYPHIMURIUM, Strain/Indicator: TA98, Metabolic Activation: S-9, Method: STANDARD PLATE
  mutagenic call: inactive; negative
[2]
  mutagenic call: inactive; negative
Test System: AMES SALMONELLA TYPHIMURIUM, Strain/Indicator: TA100, Metabolic Activation: S-9, Method: STANDARD PLATE
  mutagenic call: inactive; negative
[3]
  mutagenic call: inactive; negative
Test System: AMES SALMONELLA TYPHIMURIUM, Strain/Indicator: TA102, Metabolic Activation: S-9, Method: STANDARD PLATE
  mutagenic call: inactive; negative

## C=CCO
End Point: In vitro chromosomal aberrations, Test System: Chinese hamster lung (CHL/IU) cells, Metabolic Activation: Rat, Liver, S9, Phenobarbital and 5,6-benzoflavone
  mutagenic call: active; positive (structural changes and ploidy). toxicity at 0.008 mg/ml.
Test System: CHINESE HAMSTER V-79, Strain/Indicator: V-79/6-THIOGUANINE, Metabolic Activation: NONE
  mutagenic call: active; positive
Test System: MOUSE LYMPHOMA, Strain/Indicator: L5178Y (TK+/TK-), Metabolic Activation: NONE, Method: SUSPENSION/PLATE
  mutagenic call: active; positive. reevaluation of results: positive
Test System: Mouse lymphoma, Strain/Indicator: L5178Y (tk+/tk-), Metabolic Activation: Rat, Liver, S-9, Aroclor 1254, Method: Suspension/plate
  mutagenic call: inactive; negative

## ClC(Cl)=C(Cl)C(Cl)=C(Cl)Cl
End Point: IN VITRO CHROMOSOMAL ABERRATIONS, Test System: CHINESE HAMSTER OVARY CELLS, Metabolic Activation: NONE
  mutagenic call: inactive; negative
End Point: IN VITRO CHROMOSOMAL ABERRATIONS, Test System: CHINESE HAMSTER OVARY CELLS, Metabolic Activation: RAT, LIVER, S-9, AROCLOR 1254
  mutagenic call: inactive; negative
End Point: IN VITRO CHROMOSOMAL ABERRATIONS, Test System: CHL/IU CELLS, Metabolic Activation: NONE
  mutagenic call: active; positive (structural changes)
End Point: IN VITRO MICRONUCLEUS, Test System: CHL/IU CELLS, Metabolic Activation: NONE
  mutagenic call: active; positive
[1]
  mutagenic call: inactive; negative
[2]
  mutagenic call: active; positive
Test System: AMES SALMONELLA TYPHIMURIUM, Strain/Indicator: TA100, Metabolic Activation: RAT, LIVER, MICROSOMES AND GLUTATHIONE, Method: PREINCUBATION
  mutagenic call: active; positive
Test System: AMES SALMONELLA TYPHIMURIUM, Strain/Indicator: TA100, Metabolic Activation: RAT, LIVER, S-9, AROCLOR 1254 (30%), Method: PREINCUBATION
  mutagenic call: active; positive
Test System: AMES SALMONELLA TYPHIMURIUM, Strain/Indicator: TA100, Metabolic Activation: RAT, LIVER, S-9, AROCLOR 1254, Method: STANDARD PLATE
  mutagenic call: active; positive
